{"source": "paper PMC8851638", "about": "(ACS Omega, 2022)", "key": {"S. aureus biofilm": {"tested_on": "S. aureus biofilm", "assay": "Staphylococcus biofilm mass reduction", "type": "cell-based", "details": "at their MIC"}, "Gram-negative bacteria": {"tested_on": "Gram-negative bacteria", "assay": "MIC broth microdilution, Gram-negative panel", "type": "cell-based", "details": "Gram-negative bacteria used in this study"}, "C. albicans200 [1]": {"tested_on": "C. albicans200", "assay": "Single-step resistance selection", "type": "cell-based, Candida albicans", "details": "4 × MIC, 48 h"}, "[2]": {"tested_on": "clinical pathogenic isolates", "assay": "Single-step resistance selection, whole panel", "type": "cell-based", "details": "4 × MIC"}, "[3]": {"assay": "In vitro cytotoxicity on normal cell line", "type": "cell-based, green monkey", "details": "green monkey, Vero kidney cells"}, "[4]": {"tested_on": "Vero: green monkey kidney", "assay": "In vitro cytotoxicity on normal cell line", "type": "cell-based"}, "A. baumannii [5]": {"tested_on": "A. baumannii", "assay": "Checkerboard combination assay with Ciprofloxacin", "type": "cell-based"}, "[6]": {"tested_on": "S. epidermidis (MDR00223)", "assay": "MIC and MBC by broth microdilution", "type": "cell-based, Staphylococcus epidermidis"}, "C. albicans100 [7]": {"tested_on": "C. albicans100", "assay": "Single-step resistance selection", "type": "cell-based, Candida albicans", "details": "4 × MIC, 48 h"}, "E. coli (MDR00501) [8]": {"tested_on": "E. coli (MDR00501)", "assay": "Agar well-diffusion antimicrobial sensitivity assay", "type": "cell-based", "details": "Escherichia coli, read-out: Inhibition Zone (IZ)"}, "S. aureus (MDR00231) [9]": {"tested_on": "S. aureus (MDR00231)", "assay": "MIC and MBC by broth microdilution", "type": "cell-based, Staphylococcus aureus"}, "C. albicans100 [10]": {"tested_on": "C. albicans100", "assay": "Checkerboard combination assay with Ketoconazole", "type": "cell-based, Candida albicans"}, "K. pneumoniae (MDR00244)": {"tested_on": "K. pneumoniae (MDR00244)", "assay": "MIC and MBC by broth microdilution", "type": "cell-based", "details": "ratio in parentheses"}, "B. subtilis (MDR00423)": {"tested_on": "B. subtilis (MDR00423)", "assay": "MIC and MBC by broth microdilution", "type": "cell-based", "details": "B. subtilis; ratio in parentheses"}, "A. baumannii [11]": {"tested_on": "A. baumannii", "assay": "Single-step resistance selection", "type": "cell-based", "details": "4 × MIC, 48 h"}, "RBCs": {"tested_on": "RBCs", "assay": "Hemolytic assay", "type": "cell-based", "details": "human RBCs; compounds 1.0 mg/mL; Triton X-100 0.1% v/v; 37 °C, 35 min"}, "[12]": {"tested_on": "S. epidermidis (MDR00223)", "assay": "Agar well-diffusion antimicrobial sensitivity assay", "type": "cell-based, Staphylococcus epidermidis", "details": "Staphylococcus epidermidis, read-out: Inhibition Zone (IZ)"}, "[13]": {"tested_on": "C. albicans100 (MDR00100)", "assay": "MIC and MFC by broth microdilution", "type": "cell-based, Candida albicans"}, "B. subtilis": {"tested_on": "B. subtilis", "assay": "Single-step resistance selection", "type": "cell-based", "details": "4 × MIC, 48 h"}, "S. epidermidis biofilm": {"tested_on": "S. epidermidis biofilm", "assay": "Staphylococcus biofilm mass reduction", "type": "cell-based", "details": "at their MIC"}, "[14]": {"assay": "In vitro cytotoxicity on normal cell line", "type": "cell-based, rat", "details": "rat, H9C2 heart/myocardium cells"}, "[15]": {"tested_on": "H9C2: rat heart/myocardium", "assay": "In vitro cytotoxicity on normal cell line", "type": "cell-based"}, "S. aureus (MDR00231) [16]": {"tested_on": "S. aureus (MDR00231)", "assay": "Agar well-diffusion antimicrobial sensitivity assay", "type": "cell-based, Staphylococcus aureus", "details": "Staphylococcus aureus, read-out: Inhibition Zone (IZ)"}, "[17]": {"tested_on": "C. albicans200 (MDR00200)", "assay": "Agar well-diffusion antimicrobial sensitivity assay", "type": "cell-based, Candida albicans", "details": "Candida albicans, read-out: Inhibition Zone (IZ)"}, "K. pneumoniae": {"tested_on": "K. pneumoniae", "assay": "Single-step resistance selection", "type": "cell-based", "details": "4 × MIC, 48 h"}, "[18]": {"tested_on": "C. albicans200 (MDR00200)", "assay": "MIC and MFC by broth microdilution", "type": "cell-based, Candida albicans"}, "A. baumannii (MDR00521)": {"tested_on": "A. baumannii (MDR00521)", "assay": "MIC and MBC by broth microdilution", "type": "cell-based", "details": "ratio in parentheses"}, "C. albicans200 [19]": {"tested_on": "C. albicans200", "assay": "Checkerboard combination assay with Ketoconazole", "type": "cell-based, Candida albicans"}, "E. coli DNA gyrase": {"target": "E. coli DNA gyrase (Escherichia coli, UniProt P0AES4+P0AES6)", "sequence (P0AES4 whole entry, one chain of several)": "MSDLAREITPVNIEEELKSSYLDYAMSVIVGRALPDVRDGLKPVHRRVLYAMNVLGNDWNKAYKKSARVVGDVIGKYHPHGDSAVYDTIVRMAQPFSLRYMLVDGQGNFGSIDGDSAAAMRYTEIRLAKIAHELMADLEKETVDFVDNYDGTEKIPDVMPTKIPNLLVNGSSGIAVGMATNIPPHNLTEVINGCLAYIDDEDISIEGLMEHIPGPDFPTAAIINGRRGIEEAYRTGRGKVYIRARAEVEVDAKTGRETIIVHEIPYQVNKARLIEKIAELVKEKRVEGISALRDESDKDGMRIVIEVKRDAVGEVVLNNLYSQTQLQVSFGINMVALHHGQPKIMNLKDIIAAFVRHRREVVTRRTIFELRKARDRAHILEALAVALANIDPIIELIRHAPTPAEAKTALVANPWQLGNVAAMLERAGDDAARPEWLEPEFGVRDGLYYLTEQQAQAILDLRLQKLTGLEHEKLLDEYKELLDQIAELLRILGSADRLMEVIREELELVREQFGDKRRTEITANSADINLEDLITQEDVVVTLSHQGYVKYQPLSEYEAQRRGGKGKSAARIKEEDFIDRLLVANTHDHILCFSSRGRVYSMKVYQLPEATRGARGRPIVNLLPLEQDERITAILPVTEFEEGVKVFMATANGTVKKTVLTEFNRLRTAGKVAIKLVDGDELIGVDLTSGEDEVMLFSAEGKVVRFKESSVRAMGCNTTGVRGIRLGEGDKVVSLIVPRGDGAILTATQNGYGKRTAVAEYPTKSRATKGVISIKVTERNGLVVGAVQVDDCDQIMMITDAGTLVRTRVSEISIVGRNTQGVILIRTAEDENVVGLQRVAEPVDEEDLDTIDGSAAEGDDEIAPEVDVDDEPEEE", "assay": "DNA gyrase inhibition", "type": "biochemical"}, "[20]": {"tested_on": "C. albicans100 (MDR00100)", "assay": "Agar well-diffusion antimicrobial sensitivity assay", "type": "cell-based, Candida albicans", "details": "Candida albicans, read-out: Inhibition Zone (IZ)"}, "S. aureus": {"tested_on": "S. aureus", "assay": "Single-step resistance selection", "type": "cell-based, Staphylococcus aureus", "details": "4 × MIC, 48 h"}, "[21]": {"tested_on": "BNL: mouse normal liver cells", "assay": "In vitro cytotoxicity on normal cell line", "type": "cell-based"}, "[22]": {"assay": "In vitro cytotoxicity on normal cell line", "type": "cell-based, mouse", "details": "mouse, BNL normal liver cells"}, "E. coli (MDR00501) [23]": {"tested_on": "E. coli (MDR00501)", "assay": "MIC and MBC by broth microdilution", "type": "cell-based"}, "[24]": {"target": "T1, dihydrofolate reductase (DHFR) (Homo sapiens, UniProt P00374)", "T1 sequence (P00374 1-187)": "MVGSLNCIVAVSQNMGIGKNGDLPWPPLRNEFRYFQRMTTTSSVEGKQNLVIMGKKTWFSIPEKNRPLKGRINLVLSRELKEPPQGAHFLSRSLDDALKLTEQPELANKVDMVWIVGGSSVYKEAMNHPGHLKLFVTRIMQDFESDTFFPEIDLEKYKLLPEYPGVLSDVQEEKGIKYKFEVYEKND", "assay": "DHFR inhibition", "type": "biochemical"}, "S. epidermidis": {"tested_on": "S. epidermidis", "assay": "Single-step resistance selection", "type": "cell-based, Staphylococcus epidermidis", "details": "4 × MIC, 48 h"}, "E. coli": {"tested_on": "E. coli", "assay": "Single-step resistance selection", "type": "cell-based", "details": "4 × MIC, 48 h"}, "[25]": {"details": "Candida albicans, read-out: MIC (mean ± SEM)"}}, "note": "“And” between values parts separate entries of the source, which are not always exact repeats. Equal values may be shown once."}
{"smiles": "Cc1c(NN=C(C#N)C2=NC(=O)CS2)c(=O)n(-c2ccccc2)n1C", "note": "[Compound 13, N-(1,5-Dimethyl-3-oxo-2-phenyl-2,3-dihydro-1H-pyrazol-4-yl)-4-oxo-4,5-dihydrothiazole-2-carbohydrazonoyl cyanide]", "values": [{"measurement": "reduction of biofilm formation", "setting": "S. aureus biofilm", "result": 51.2, "unit": "%"}, {"measurement": "MIC, range over panel", "setting": "Gram-negative bacteria", "result": "0.43 to 0.98", "unit": "µg/mL"}, {"measurement": "Single-step resistance frequency (mutation frequency)", "setting": "C. albicans200 [1]", "result": "3.20 × 10^–8"}, {"measurement": "mutation frequency, range over panel", "setting": "[2]", "result": "2.71 × 10^–7 to 2.92 × 10^–9"}, {"measurement": "IC50 at 72 h", "setting": "[3]", "result": "74.8 ± 2.12", "unit": "µM"}, {"measurement": "Selectivity index against DHFR", "setting": "[4]; IC50 of Vero / IC50 of DHFR", "result": 28.02}, {"measurement": "Selectivity index against DNA gyrase", "setting": "[4]; IC50 of Vero / IC50 of DNA gyrase", "result": 2.36}, {"measurement": "combination effect", "setting": "A. baumannii [5]", "result": "S (S: synergism)"}, {"measurement": "fractional inhibitory concentration index (FICI)", "setting": "A. baumannii [5]", "result": 0.5}, {"measurement": "MBC/MIC", "setting": "[6]; S. epidermidis, ratio in parentheses", "result": 1}, {"measurement": "MIC", "setting": "[6]; Staphylococcus epidermidis, read-out: MIC (mean ± SEM)", "result": "0.99 ± 0.3", "unit": "µg/mL"}, {"measurement": "Single-step resistance frequency (mutation frequency)", "setting": "C. albicans100 [7]", "result": "2.92 × 10^–9"}, {"measurement": "zone of inhibition at 100000 µg/mL", "setting": "E. coli (MDR00501) [8]", "result": "28 ± 0.55", "unit": "mm"}, {"measurement": "MBC/MIC", "setting": "S. aureus (MDR00231) [9]; S. aureus, ratio in parentheses", "result": 1}, {"measurement": "MIC", "setting": "S. aureus (MDR00231) [9]; Staphylococcus aureus, read-out: MIC (mean ± SEM)", "result": "0.98 ± 0.2", "unit": "µg/mL"}, {"measurement": "combination effect", "setting": "C. albicans100 [10]", "result": "S (S: synergism)"}, {"measurement": "fractional inhibitory concentration index (FICI)", "setting": "C. albicans100 [10]", "result": 0.5}, {"measurement": "MBC/MIC", "setting": "K. pneumoniae (MDR00244)", "result": 2}, {"measurement": "MBC/MIC", "setting": "B. subtilis (MDR00423)", "result": 2}, {"measurement": "Single-step resistance frequency (mutation frequency)", "setting": "A. baumannii [11]", "result": "2.71 × 10^–7"}, {"measurement": "%lysis of RBCs", "setting": "RBCs", "result": "15.22% and 15.22 ± 0.43%"}, {"measurement": "zone of inhibition at 100000 µg/mL", "setting": "[12]", "result": "25 ± 0.45", "unit": "mm"}, {"measurement": "MFC/MIC", "setting": "[13]; C. albicans100, ratio in parentheses", "result": 2}, {"measurement": "MIC", "setting": "[13]; [25]", "result": "0.99 ± 0.2", "unit": "µg/mL"}, {"measurement": "Single-step resistance frequency (mutation frequency)", "setting": "B. subtilis", "result": "1.66 × 10^–9"}, {"measurement": "reduction of biofilm formation", "setting": "S. epidermidis biofilm", "result": 47.8, "unit": "%"}, {"measurement": "IC50 at 72 h", "setting": "[14]", "result": "61.6 ± 1.64", "unit": "µM"}, {"measurement": "Selectivity index against DHFR", "setting": "[15]; IC50 of H9C2 / IC50 of DHFR", "result": 23.06}, {"measurement": "Selectivity index against DNA gyrase", "setting": "[15]; IC50 of H9C2 / IC50 of DNA gyrase", "result": 1.94}, {"measurement": "zone of inhibition at 100000 µg/mL", "setting": "S. aureus (MDR00231) [16]", "result": "27 ± 0.82", "unit": "mm"}, {"measurement": "zone of inhibition at 100000 µg/mL", "setting": "[17]", "result": "28 ± 0.36", "unit": "mm"}, {"measurement": "Single-step resistance frequency (mutation frequency)", "setting": "K. pneumoniae", "result": "3.22 × 10^–8"}, {"measurement": "MFC/MIC", "setting": "[18]; C. albicans200, ratio in parentheses", "result": 2}, {"measurement": "MIC", "setting": "[18]; [25]", "result": "0.98 ± 0.3", "unit": "µg/mL"}, {"measurement": "MBC/MIC", "setting": "A. baumannii (MDR00521)", "result": 0.5}, {"measurement": "combination effect", "setting": "C. albicans200 [19]", "result": "S (S: synergism)"}, {"measurement": "fractional inhibitory concentration index (FICI)", "setting": "C. albicans200 [19]", "result": 0.5}, {"measurement": "IC50", "setting": "E. coli DNA gyrase", "result": "31.64 ± 0.17", "unit": "µM"}, {"measurement": "zone of inhibition at 100000 µg/mL", "setting": "[20]", "result": "29 ± 0.25", "unit": "mm"}, {"measurement": "Single-step resistance frequency (mutation frequency)", "setting": "S. aureus", "result": "2.73 × 10^–8"}, {"measurement": "Selectivity index against DHFR", "setting": "[21]; IC50 of BNL / IC50 of DHFR", "result": 29.78}, {"measurement": "Selectivity index against DNA gyrase", "setting": "[21]; IC50 of BNL / IC50 of DNA gyrase", "result": 2.51}, {"measurement": "IC50 at 72 h", "setting": "[22]", "result": "79.5 ± 1.67", "unit": "µM"}, {"measurement": "MBC/MIC", "setting": "E. coli (MDR00501) [23]; E. coli, ratio in parentheses", "result": 0.5}, {"measurement": "MIC", "setting": "E. coli (MDR00501) [23]; Escherichia coli, read-out: MIC (mean ± SEM)", "result": "0.49 ± 0.2", "unit": "µg/mL"}, {"measurement": "IC50", "setting": "[24]", "result": "2.67 ± 0.14", "unit": "µM"}, {"measurement": "Single-step resistance frequency (mutation frequency)", "setting": "S. epidermidis", "result": "4.15 × 10^–8"}, {"measurement": "Single-step resistance frequency (mutation frequency)", "setting": "E. coli", "result": "2.90 × 10^–8"}]}
